The record followed here is ChEMBL document CHEMBL1145498, “A systematic interaction map of validated kinase inhibitors with Ser/Thr kinases” (Proc Natl Acad Sci U S A, 2007).

The ΔTm is the change in melting temperature against a reference sample.

For assay [1], the target named is 5'-AMP-activated protein kinase catalytic subunit alpha-2 (Homo sapiens) (UniProt P54646).
The target of assay [2] is Calcium/calmodulin-dependent protein kinase type II subunit gamma (Homo sapiens) (UniProt Q13555).
Chain of Calcium/calmodulin-dependent protein kinase type II subunit gamma (Homo sapiens) (Q13555 whole entry): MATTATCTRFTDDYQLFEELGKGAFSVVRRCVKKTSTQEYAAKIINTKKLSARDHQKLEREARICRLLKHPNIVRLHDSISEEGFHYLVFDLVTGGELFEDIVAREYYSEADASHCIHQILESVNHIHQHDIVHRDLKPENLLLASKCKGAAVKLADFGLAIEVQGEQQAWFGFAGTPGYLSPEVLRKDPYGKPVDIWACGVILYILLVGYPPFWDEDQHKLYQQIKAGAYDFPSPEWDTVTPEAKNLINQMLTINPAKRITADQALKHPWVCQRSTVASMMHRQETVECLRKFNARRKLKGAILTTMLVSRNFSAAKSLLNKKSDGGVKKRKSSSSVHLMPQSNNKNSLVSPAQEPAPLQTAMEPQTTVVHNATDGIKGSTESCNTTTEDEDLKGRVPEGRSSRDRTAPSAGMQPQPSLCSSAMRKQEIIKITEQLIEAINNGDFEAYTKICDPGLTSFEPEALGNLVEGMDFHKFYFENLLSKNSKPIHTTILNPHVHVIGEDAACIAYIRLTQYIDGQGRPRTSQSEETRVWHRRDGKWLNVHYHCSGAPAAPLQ
The target of assay [3] is T1, Calcium/calmodulin-dependent protein kinase type IV (Homo sapiens) (UniProt Q16566).
T1 sequence (whole entry): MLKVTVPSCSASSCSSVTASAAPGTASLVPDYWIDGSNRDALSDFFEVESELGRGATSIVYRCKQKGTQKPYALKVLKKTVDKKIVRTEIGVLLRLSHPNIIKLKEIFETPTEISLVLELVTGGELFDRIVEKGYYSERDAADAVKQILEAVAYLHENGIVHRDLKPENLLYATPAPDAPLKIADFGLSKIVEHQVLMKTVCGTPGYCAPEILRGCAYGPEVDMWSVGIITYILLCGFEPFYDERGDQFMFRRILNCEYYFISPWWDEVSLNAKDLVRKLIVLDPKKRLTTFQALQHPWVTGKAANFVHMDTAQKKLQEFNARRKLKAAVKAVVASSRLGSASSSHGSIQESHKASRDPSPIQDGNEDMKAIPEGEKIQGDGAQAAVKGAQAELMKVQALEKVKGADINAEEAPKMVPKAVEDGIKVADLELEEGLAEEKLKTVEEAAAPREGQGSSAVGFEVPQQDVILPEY

For assay [4], the target named is Calcium/calmodulin-dependent protein kinase kinase 2 (Homo sapiens, UniProt Q96RR4).
Chain of Calcium/calmodulin-dependent protein kinase kinase 2 (Q96RR4 2-588 limits assumed): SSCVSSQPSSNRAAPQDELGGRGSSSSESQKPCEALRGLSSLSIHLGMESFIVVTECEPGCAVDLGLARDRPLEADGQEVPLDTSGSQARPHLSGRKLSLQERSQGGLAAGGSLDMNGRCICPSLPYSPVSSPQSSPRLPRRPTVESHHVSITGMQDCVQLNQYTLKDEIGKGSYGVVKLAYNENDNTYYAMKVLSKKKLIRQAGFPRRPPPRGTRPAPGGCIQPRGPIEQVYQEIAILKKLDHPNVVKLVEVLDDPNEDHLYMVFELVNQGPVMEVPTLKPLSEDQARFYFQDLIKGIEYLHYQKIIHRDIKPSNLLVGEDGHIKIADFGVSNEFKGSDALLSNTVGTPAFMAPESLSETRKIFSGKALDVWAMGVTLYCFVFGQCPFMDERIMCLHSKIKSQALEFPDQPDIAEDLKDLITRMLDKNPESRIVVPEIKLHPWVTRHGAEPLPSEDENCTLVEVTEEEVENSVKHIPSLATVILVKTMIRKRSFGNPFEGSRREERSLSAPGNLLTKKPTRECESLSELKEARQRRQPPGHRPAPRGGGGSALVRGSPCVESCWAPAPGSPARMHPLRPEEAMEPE
The target in assay [5] is Cyclin-dependent kinase-like 1 (Homo sapiens) (UniProt Q00532).
Chain of Cyclin-dependent kinase-like 1 (Homo sapiens) (Q00532 whole entry): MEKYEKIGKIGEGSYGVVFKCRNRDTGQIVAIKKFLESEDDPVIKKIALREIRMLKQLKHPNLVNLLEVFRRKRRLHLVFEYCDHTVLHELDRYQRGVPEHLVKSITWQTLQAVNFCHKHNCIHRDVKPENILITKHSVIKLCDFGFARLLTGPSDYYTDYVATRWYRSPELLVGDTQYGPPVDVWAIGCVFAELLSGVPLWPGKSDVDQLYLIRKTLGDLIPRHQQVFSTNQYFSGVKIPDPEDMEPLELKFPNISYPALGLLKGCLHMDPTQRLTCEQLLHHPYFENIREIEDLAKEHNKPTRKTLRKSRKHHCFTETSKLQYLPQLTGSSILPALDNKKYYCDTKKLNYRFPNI
Assay [6] deals with Serine/threonine-protein kinase PAK 6 (Homo sapiens) (UniProt Q9NQU5).
Chain of Serine/threonine-protein kinase PAK 6 (Homo sapiens) (Q9NQU5 whole entry, looked up): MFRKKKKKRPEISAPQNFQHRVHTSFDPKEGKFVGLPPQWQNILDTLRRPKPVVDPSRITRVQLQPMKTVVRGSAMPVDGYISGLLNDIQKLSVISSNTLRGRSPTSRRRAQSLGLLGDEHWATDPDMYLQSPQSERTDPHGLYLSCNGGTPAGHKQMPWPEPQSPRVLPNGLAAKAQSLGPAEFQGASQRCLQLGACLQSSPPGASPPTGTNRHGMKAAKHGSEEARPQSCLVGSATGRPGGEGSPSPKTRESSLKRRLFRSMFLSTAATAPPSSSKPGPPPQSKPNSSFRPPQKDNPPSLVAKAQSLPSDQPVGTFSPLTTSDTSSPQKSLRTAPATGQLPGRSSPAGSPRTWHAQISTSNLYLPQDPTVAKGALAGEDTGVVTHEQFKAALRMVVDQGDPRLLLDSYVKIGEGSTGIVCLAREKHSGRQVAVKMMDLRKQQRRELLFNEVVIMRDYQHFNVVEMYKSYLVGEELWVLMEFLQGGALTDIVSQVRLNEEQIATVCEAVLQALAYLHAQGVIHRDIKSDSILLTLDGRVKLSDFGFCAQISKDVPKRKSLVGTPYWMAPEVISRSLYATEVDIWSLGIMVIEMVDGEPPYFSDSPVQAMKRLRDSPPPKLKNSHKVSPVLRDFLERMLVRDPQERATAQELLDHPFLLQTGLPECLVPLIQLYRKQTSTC
In assay [7] the target is Ribosomal protein S6 kinase alpha-3 (Homo sapiens) (UniProt P51812).
Chain of Ribosomal protein S6 kinase alpha-3 (Homo sapiens) (P51812 whole entry): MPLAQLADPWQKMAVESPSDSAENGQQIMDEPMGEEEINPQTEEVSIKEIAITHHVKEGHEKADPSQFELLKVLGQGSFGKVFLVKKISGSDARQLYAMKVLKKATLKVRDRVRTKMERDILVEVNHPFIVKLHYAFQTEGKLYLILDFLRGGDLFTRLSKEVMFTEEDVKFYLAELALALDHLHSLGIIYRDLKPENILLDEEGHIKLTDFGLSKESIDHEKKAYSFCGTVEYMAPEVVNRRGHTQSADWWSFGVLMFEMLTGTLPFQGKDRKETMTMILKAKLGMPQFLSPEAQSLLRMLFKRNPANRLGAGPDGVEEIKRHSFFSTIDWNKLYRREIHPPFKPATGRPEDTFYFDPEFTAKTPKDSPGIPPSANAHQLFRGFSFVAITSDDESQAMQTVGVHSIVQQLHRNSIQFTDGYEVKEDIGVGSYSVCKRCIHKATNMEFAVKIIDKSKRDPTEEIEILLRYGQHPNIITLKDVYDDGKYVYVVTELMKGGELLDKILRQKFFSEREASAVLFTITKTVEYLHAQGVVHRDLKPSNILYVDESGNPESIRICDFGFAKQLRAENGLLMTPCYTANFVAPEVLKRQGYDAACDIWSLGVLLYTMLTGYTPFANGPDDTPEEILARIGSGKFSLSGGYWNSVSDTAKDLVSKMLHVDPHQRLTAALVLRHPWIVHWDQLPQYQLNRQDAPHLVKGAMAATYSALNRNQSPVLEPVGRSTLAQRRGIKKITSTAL
Assay [8] concerns the target Serine/threonine-protein kinase 38 (Homo sapiens) (UniProt Q15208).
The target in assay [9] is T2, Serine/threonine-protein kinase VRK1 (Homo sapiens) (UniProt Q99986).
T2 sequence (whole entry): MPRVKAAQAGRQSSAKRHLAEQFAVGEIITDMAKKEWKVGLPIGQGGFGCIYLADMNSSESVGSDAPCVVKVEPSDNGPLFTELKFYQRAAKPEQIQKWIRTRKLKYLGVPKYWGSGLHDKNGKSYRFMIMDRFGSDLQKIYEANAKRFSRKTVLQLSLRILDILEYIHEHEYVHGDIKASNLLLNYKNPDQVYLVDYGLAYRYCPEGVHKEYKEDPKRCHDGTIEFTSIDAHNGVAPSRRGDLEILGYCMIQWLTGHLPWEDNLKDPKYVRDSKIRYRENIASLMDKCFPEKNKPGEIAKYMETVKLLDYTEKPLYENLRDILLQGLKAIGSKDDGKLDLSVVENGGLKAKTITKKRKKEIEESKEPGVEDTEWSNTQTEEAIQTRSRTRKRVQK

The target of assay [10] is T3, Serine/threonine-protein kinase VRK3 (Homo sapiens) (UniProt Q8IV63).
T3 sequence (whole entry): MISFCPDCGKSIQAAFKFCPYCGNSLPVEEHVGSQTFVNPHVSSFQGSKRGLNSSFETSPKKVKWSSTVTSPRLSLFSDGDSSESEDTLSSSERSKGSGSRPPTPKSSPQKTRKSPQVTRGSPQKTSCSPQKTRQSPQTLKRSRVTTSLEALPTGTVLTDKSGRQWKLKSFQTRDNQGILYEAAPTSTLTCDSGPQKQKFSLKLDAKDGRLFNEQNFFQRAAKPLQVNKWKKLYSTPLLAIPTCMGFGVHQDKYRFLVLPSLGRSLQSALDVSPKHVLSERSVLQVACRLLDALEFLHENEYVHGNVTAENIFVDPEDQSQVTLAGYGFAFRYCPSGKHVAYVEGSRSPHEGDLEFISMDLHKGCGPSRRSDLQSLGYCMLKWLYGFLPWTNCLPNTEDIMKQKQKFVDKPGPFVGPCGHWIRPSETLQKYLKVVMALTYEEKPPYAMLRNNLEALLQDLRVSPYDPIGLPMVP

Assay [11] addresses Serine/threonine-protein kinase 25 (Homo sapiens) (UniProt O00506).

Each structure is given as a SMILES string.

Chain of Serine/threonine-protein kinase 38 (Homo sapiens) (Q15208 2-465 limits assumed): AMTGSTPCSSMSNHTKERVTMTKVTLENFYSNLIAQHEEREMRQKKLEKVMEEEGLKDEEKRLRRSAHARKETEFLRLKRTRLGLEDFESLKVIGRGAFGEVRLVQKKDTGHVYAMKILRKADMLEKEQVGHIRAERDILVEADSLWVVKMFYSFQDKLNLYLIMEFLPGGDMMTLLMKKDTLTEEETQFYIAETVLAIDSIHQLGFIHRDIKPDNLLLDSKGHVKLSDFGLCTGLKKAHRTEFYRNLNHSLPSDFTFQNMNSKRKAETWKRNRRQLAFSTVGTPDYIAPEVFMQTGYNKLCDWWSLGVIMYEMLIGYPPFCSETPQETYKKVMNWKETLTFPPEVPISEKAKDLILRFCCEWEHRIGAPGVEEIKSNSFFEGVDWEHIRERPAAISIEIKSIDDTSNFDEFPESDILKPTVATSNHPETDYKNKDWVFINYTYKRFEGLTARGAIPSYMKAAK
Chain of 5'-AMP-activated protein kinase catalytic subunit alpha-2 (Homo sapiens) (P54646 whole entry, looked up): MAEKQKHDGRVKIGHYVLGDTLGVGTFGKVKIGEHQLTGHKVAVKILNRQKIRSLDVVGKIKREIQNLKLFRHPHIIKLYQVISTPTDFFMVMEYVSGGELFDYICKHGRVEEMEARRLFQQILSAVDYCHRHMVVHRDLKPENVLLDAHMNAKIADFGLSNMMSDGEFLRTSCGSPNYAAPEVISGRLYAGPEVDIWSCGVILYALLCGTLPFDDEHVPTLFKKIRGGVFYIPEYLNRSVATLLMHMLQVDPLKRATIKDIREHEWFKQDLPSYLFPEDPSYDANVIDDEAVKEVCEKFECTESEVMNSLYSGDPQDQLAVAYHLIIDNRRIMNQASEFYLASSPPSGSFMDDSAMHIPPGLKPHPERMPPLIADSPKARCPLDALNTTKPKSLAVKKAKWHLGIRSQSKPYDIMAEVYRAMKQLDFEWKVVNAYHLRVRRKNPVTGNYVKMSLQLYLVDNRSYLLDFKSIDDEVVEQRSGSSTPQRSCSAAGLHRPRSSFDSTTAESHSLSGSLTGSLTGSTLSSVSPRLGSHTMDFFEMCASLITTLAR
Chain of Serine/threonine-protein kinase 25 (Homo sapiens) (O00506 whole entry, looked up): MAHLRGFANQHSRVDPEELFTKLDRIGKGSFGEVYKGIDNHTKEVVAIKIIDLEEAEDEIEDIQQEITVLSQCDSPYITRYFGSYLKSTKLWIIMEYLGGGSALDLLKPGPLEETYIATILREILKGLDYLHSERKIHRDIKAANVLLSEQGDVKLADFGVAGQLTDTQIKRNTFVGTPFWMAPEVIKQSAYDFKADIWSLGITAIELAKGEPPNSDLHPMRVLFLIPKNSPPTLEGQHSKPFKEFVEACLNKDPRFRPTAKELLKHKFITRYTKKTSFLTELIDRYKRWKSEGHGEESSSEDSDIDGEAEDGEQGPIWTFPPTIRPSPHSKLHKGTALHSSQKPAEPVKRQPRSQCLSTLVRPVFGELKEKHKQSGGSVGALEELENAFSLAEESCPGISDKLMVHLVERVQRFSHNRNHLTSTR

Take `O=[N+]([O-])c1ccc(-c2nc(-c3ccc(F)cc3)c(-c3ccncc3)[nH]2)cc1`: the ΔTm in assay [1] was -0.4 °C; in [2], -0.3 °C; in assay [3], -0.2 °C; in assay [4], -0.5 °C; in assay [5], 0 °C; in assay [6], -0.2 °C. Moreover, the ΔTm was found to be 1.8 °C in assay [7]; 0.9 °C in [8]; 0 °C in [9]; 0.4 °C in assay [10]; 0.9 °C in [11].
`O=C1c2ccccc2-c2n[nH]c3cccc1c23`: the ΔTm in [1] worked out at 2.1 °C; in assay [2], 0.8 °C; in assay [3], 1.5 °C; in assay [4], 2.4 °C; in assay [5], 0.7 °C; in assay [6], 1.8 °C. For the same compound, the ΔTm came to 3.5 °C in assay [7]; 1 °C in [8]; 0 °C in assay [9]; 0.1 °C in [10]; 4.8 °C in assay [11].
As to `O=c1cc(-c2ccc(O)cc2)oc2cc(O)cc(O)c12`, the ΔTm in [1] was 1.5 °C; in assay [2], -11.5 °C; in assay [3], 2.1 °C; in assay [4], 3 °C; in assay [5], 1.4 °C; in [6], 0.3 °C. Also, the ΔTm in [7] was 2.7 °C; in assay [8], 1.1 °C; in assay [9], 0.2 °C; in assay [10], 0.2 °C; in [11], 4.9 °C.
Turning to `Cn1cc(C2=C(c3cn(CCCN)c4ccccc34)C(=O)NC2=O)c2ccccc21`, the ΔTm was 1.4 °C in assay [1]; 3.7 °C in [2]; 1.7 °C in assay [3]; -0.1 °C in assay [4]; 2.7 °C in assay [5]; 4.5 °C in assay [6]. For the same compound, the ΔTm in assay [7] was 8.1 °C; in [8], 0.2 °C; in assay [9], 0.9 °C; in assay [10], 0.9 °C; in assay [11], 2.3 °C.
With `N#C/C(=C\c1ccc(O)c(O)c1)C(=O)NCc1ccccc1`, the ΔTm in assay [1] is -0.2 °C; in assay [2], -0.2 °C; in assay [3], 0.6 °C; in assay [4], 0.2 °C; in assay [5], -0.3 °C; in [6] it was -0.4 °C. Besides, the ΔTm in assay [7] was 0.6 °C; in assay [8], 0.1 °C; in assay [9], 0.4 °C; in assay [10], -0.2 °C; in [11], -0.4 °C.
In the case of `Ic1cccc(CSc2nnc(-c3ccncc3)o2)c1`, the ΔTm in assay [1] is -0.7 °C; in assay [2] it was -0.1 °C; in assay [3], -0.5 °C; in [4], -0.6 °C; in assay [5], -0.7 °C; in [6], 0.2 °C. Further, the ΔTm was -0.6 °C in assay [7]; 0.8 °C in [8]; -0.2 °C in [9]; -0.1 °C in assay [10]; -0.3 °C in assay [11].
Turning to `O=C1NC(=O)C(c2c[nH]c3ccccc23)=C1c1c[nH]c2ccccc12`, the ΔTm is 1.2 °C in assay [1]; 2.2 °C in [2]; 2.8 °C in assay [3]; -0.4 °C in assay [4]; 0.6 °C in [5]; 0.8 °C in [6]. Besides, the ΔTm turned out to be 3.6 °C in assay [7]; 0.5 °C in assay [8]; 0.8 °C in assay [9]; 1.2 °C in assay [10]; 2 °C in [11].
Turning to `CN(C)c1ccc(CC2C(=O)Nc3ccccc32)cc1` (stereo not given), the ΔTm is 0.3 °C in [1]; 0.2 °C in [2]; 0.1 °C in assay [3]; 2 °C in [4]; -0.3 °C in [5]; 0.1 °C in [6]. Besides, the ΔTm in [7] was 3.6 °C; in [8], 1.5 °C; in [9], -0.2 °C; in assay [10] it was 0.1 °C; in assay [11] it was 2.4 °C.
With `CN(C)CC1CCn2c(c(C3=C(c4c[nH]c5ccccc45)C(=O)NC3=O)c3ccccc32)C1` (stereo not given), the ΔTm was -0.5 °C in assay [1]; 1.3 °C in assay [2]; -0.2 °C in [3]; -0.8 °C in assay [4]; 0.5 °C in assay [5]; 0.7 °C in [6]. In addition, the ΔTm in assay [7] is 7.4 °C; in [8], 0.3 °C; in [9], 0.5 °C; in assay [10], 0.6 °C; in assay [11], 0.4 °C.
For the compound `O=Nc1c(-c2c(O)[nH]c3ccccc23)[nH]c2ccccc12`, the ΔTm was determined as 4.5 °C in assay [1]; 2.3 °C in [2]; 4.5 °C in [3]; 4.3 °C in [4]; 3.8 °C in assay [5]; 1.7 °C in [6]. The ΔTm in [7] is 5.5 °C; in assay [8], 2.7 °C; in assay [9], 0.1 °C; in assay [10], -0.8 °C; in assay [11], 3.8 °C.
Regarding `Nc1nc(Nc2ccc(S(N)(=O)=O)cc2)nn1C(=S)Nc1c(F)cccc1F`, the ΔTm was 10.1 °C in assay [1]; 4.2 °C in assay [2]; -0.2 °C in [3]; 8.6 °C in assay [4]; 4.3 °C in assay [5]; 5.6 °C in assay [6]. For the same compound, the ΔTm in [7] came out at 9.6 °C; in assay [8], 6.4 °C; in [9], 1.9 °C; in [10], 0.9 °C; in [11], 12 °C.
Regarding `O=c1sn(Cc2ccccc2)c(=S)n1Cc1ccccc1`, the ΔTm in assay [1] is -0.9 °C; in [2] it was 0.4 °C; in assay [3], 0.9 °C; in [4] it was -1.2 °C; in [5] it was -0.3 °C; in assay [6] it was 0.1 °C. The ΔTm was 0 °C in [7]; 0.4 °C in [8]; 0.6 °C in assay [9]; 0.9 °C in assay [10]; 0.5 °C in assay [11].
`Cn1cc(C2=C(c3cn(CCCSC(=N)N)c4ccccc34)C(=O)NC2=O)c2ccccc21`: the ΔTm in [1] amounted to 2.1 °C; in assay [2] it was 5.2 °C; in assay [3], 3.2 °C; in assay [4] it was 0.1 °C; in assay [5] it was 2.2 °C; in [6], 3.1 °C. For the same compound, the ΔTm in assay [7] was 10 °C; in assay [8], 0.8 °C; in [9] it was 1.6 °C; in assay [10] it was 0.8 °C; in assay [11], 3.9 °C.
On to `CC(C)n1cnc2c(NCc3ccccc3)nc(NCCCO)nc21`, for which the ΔTm in [1] is -0.7 °C; in assay [2] it was 0.3 °C; in assay [3], 0.4 °C; in [4], 2 °C; in [5], -0.1 °C; in assay [6], 0.6 °C. For the same compound, the ΔTm is 1 °C in [7]; 0.3 °C in assay [8]; -0.1 °C in assay [9]; -0.3 °C in [10]; 0.1 °C in assay [11].
For the compound `COc1cc2ncnc(Nc3cccc(Br)c3)c2cc1OC`, the ΔTm in assay [1] was -0.5 °C; in assay [2] it was 0.1 °C; in assay [3], 0.1 °C; in [4], 1.4 °C; in assay [5] it was 0.1 °C; in assay [6] it was 0.1 °C. The ΔTm came to 1.5 °C in assay [7]; 0.4 °C in assay [8]; 0.7 °C in assay [9]; 0.3 °C in assay [10]; 1.4 °C in [11].
